Read-outs that look alike come from different tables or passages of the source.
How the values were obtained:
H. sapiens p97 (P55072) = target: T1, H. sapiens p97 (P55072) (Homo sapiens, UniProt P55072); assay: p97 ATPase activity, ATP consumption assay (Kinase-Glo), IC50 / counter screen; format: biochemical; conditions: Hs p97; 100 μM – 1 nM; Suppl. Fig. 9C
T1 construct: 6xHis (C); made in house; host or cells: E. coli BL21 (DE3)

[1] = target: S. mansoni p97 (Smp_018240) (Schistosoma mansoni, UniProt G4M0P7); assay: biochemical; conditions: for Fold Selectivity: H. sapiens vs S. mansoni p97 IC50; for Fold Selectivity / IC50: Suppl. Fig. 9C; for IC50: Sm p97, 100 μM – 1 nM, read-out: S. mansoni IC50; for activity on the enzyme: schistosome p97
Experimental: E. coli BL21 (DE3) containing the desired plasmid were grown in LB medium containing […] kanamycin while shaking at 37 °C to an OD600 of 0.6–0.8. The temperature was reduced to 18°C and 0.8 mM isopropyl-beta-D-thiogalactopyranoside (IPTG) was added. The bacterial culture was harvested 16hr later by centrifugation. The resulting pellet was suspended in 60 mL lysis buffer/2L bacterial culture [20 mM Tris (pH 7.4), 300 mM NaCl, 5 mM MgCl2, 20 mM imidazole, 1% Triton X-100, 1 mg/mL lysozyme, 10% glycerol, 3 mM β-mercaptoethanol, 0.2 mM PMSF, and protease inhibitor tablet (Roche)]. […] The lysate was centrifuged at 40,000 × rpm for 35 min at 4°C. The resulting supernatant was incubated with Ni-NTA beads equilibrated to lysis buffer for 1 hr at 4°C before being loaded onto a gravity column. The bead bed was washed with wash buffer [20 mM Tris (pH 7.4), 500 mM NaCl, 5 mM MgCl2, 40 mM imidazole, 0.05% Triton X-100, 10% glycerol, 3 mM β-mercaptoethanol, 0.2 mM PMSF, 0.001 mg/mL Aprotinin, and 0.002 mg/mL Leupeptin], then eluted in the same buffer with 250 mM imidazole in wash buffer. Fractions containing p97 were concentrated using Pierce Protein Concentrators (100k MWCO) and loaded onto a gel-filtration column (Superdex 200PG) and eluted using SEC buffer [20 mM Tris (pH 7.4), 180 mM NaCl, 5 mM MgCl2, and 10% glycerol] at 0.5 mL/min flow rate on a BioRad NGC Chromatography System. Fractions corresponding to an apparent molecular weight of 500 – 600 kDa were collected and analyzed by 4–20% SDS/PAGE to evaluate purity. Concentration was determined using a BSA standard. Fractions containing purified protein were aliquoted, snap frozen in liquid nitrogen, and stored at −80 °C until use.
For manual ATP consumption assays, 1 μM p97 was incubated with 1% DMSO or inhibitor (1% DMSO final) in assay buffer [50 mM Tris (pH 7.5), 20 mM MgCl2, 1 mM EDTA, 0.5 mM tris(2-carboxyethyl)phosphine (TCEP)] for 5 minutes prior to the addition of 20 μM ATP in a 384-well plate for a total reaction volume of 10 μL, and a final concentration of 500nM enzyme and 10 μM ATP. The reaction was allowed to proceed for 50 minutes at room temperature before adding equivalent volume of Kinase-Glo Plus reagent (Promega), and a further incubation of 10 minutes in the dark.
IC50 values were calculated using GraphPad Prism.

adult S. mansoni worms = assay: Treatment of adult S. mansoni worms in culture with inhibitors (attachment to tissue culture substrate, morphology; single 10 μM and dose-response EC50); format: cell-based, Schistosoma mansoni; conditions: for EC50: Schistosoma mansoni; for effect on adult worms: benzoxazole propiolamide series, treated 72 hours, monitored until D5
Experimental: Adult S. mansoni (NMRI strain) (6–7 weeks post-infection) worms were harvested from infected female Swiss Webster mice by hepatic portal vein perfusion using 37°C DMEM (Mediatech, Manassas, VA), 8% Horse Serum, and heparin.
Roughly 5 adult worm pairs were placed in 3mL Basch medium in a 12-well culture vessel, and incubated at 37°C, 5% CO2 for the length of the experiment. Compound was administered at D0, D1, and D2, media and drug refreshed every 24 hr. Worms were then allowed to remain in culture until D5, where a final assessment of worm attachment to tissue culture substate was made by light microscopy. Observations on movement and morphology were also recorded. A negative control (0.1% DMSO) and positive control (PZQ; 10 μM in 0.1% DMSO) were included in each experiment, and each experiment was repeated in triplicate for validation. For compounds that caused complete detachment in replicate experiments, the treatment was expanded to three concentrations (10 μM, 5 μM, and 1 μM) following the same treatment schedule and controls as detailed above. […] Each titration experiment was performed in triplicate according to the treatment regimen described above, using DMSO and PZQ as appropriate controls. Morphologies and motility were assessed by light microscopy, and dose-response curves were calculated using the primary readout of parasite attachment to tissue culture substrate in GraphPad Prism. […]
[…] Values were calculated using Prism.

HepG2 cells = assay: HepG2 cytotoxicity assay (Cell Titer Glo 2.0); format: cell-based, human; conditions: Homo sapiens
Experimental: HepG2 cells (ATCC) were plated at 2500 cells/well in 50 μL/well, dispersing cells using a 25g needle to break up clumps prior to plating. Plates were incubated for 24hr at 37C, 5% CO2. Following 24hr, 50 μL media containing 0.6% DMSO was added to a set of wells on one plate. The plate and Cell Titer Glo 2.0 reagent were brought to RT. A T=0 read was taken by adding 40 μL reagent/well, rocking the plate at 100 rpm for 2 min, then reading luminescence ~10 min later. […] 50 μL 2x concentrated compound was added to wells containing cells in 50 μL 24 hr after plating. Concentrations were tested in triplicate at following values: 30, 10, 3.3, 1.1, 0.37, 0.12, and 0.04 μM. Plates were incubated for 72 hr at 37C, 5% CO2. Following equilibration to room temperature, 40 μL undiluted reagent was added to each well, the plate rocked at 100 rpm for 2 min and then read for luminescent signal ~10 min later.
Values are plotted in excel and the 50% point determined by interpolation. Values were revisualized in Prism.

[2] = adult parasites, fraction of worms attached, 72 hours of drug treatment, in culture until D5, 50 μM - 10 nM, Suppl. Fig. 9C, read-out: S. mansoni EC50
[3] = adult worms, MEK1 inhibitor, read-out: EC50

T1 sequence (P55072 whole entry): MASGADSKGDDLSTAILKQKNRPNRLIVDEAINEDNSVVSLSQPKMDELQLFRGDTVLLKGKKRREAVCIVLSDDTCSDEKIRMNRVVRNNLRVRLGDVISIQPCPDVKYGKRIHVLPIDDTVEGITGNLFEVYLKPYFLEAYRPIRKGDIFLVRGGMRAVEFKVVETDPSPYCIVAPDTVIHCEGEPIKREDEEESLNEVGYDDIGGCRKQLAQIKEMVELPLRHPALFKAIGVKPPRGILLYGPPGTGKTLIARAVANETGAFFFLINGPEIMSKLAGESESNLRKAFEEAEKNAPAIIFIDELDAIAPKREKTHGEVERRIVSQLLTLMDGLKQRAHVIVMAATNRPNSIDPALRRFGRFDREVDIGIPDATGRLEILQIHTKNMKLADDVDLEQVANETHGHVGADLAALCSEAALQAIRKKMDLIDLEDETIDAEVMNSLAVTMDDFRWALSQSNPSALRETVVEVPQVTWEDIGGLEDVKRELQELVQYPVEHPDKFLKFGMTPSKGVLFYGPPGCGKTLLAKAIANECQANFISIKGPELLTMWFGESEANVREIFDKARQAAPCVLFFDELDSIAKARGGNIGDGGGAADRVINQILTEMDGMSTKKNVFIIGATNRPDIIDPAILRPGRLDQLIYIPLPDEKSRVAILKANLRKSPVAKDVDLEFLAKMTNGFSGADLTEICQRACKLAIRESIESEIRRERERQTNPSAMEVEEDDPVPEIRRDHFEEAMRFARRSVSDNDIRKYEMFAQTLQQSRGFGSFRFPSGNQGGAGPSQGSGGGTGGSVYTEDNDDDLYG
S. mansoni p97 (Smp_018240), sequence (G4M0P7 entry or part of it): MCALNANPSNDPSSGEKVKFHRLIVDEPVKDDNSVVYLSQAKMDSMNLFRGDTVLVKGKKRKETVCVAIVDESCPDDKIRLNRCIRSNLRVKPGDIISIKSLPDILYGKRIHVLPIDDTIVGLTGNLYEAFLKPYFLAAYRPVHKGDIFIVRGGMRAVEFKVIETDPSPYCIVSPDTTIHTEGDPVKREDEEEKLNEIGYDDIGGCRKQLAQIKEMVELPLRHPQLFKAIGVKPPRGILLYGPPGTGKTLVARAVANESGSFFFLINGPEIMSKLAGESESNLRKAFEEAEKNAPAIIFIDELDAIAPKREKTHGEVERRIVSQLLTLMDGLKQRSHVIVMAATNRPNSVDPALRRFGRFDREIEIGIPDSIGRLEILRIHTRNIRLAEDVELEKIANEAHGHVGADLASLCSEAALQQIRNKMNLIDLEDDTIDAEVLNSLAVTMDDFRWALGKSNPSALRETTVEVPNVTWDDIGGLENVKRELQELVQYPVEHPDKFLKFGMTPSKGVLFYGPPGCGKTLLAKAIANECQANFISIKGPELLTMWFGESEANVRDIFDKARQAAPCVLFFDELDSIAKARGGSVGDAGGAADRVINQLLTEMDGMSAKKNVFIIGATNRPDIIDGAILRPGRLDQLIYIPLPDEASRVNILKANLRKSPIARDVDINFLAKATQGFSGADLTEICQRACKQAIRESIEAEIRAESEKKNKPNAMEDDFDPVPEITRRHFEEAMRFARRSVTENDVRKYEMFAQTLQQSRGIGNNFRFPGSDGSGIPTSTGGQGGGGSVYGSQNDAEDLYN

In the case of `O=C(C#Cc1ccccn1)Nc1ccc2oc(-c3ccccn3)nc2c1` [Compound 737, 3-(pyridin-2-yl)-N-(2-(pyridin-2-yl)benzo[d]oxazol-5-yl)propiolamide], the IC50 (H. sapiens p97 (P55072)) is reported as 13000 ± 2200 nM, the “Fold Selectivity” value [1] is reported as 4.3 and the IC50 [1] is reported as 3000 ± 410 nM. The “activity on the enzyme” value [1] was “decreased potency on the enzyme”, the EC50 (adult S. mansoni worms; [2]) was 22000 nM and the “effect on adult worms” value (adult S. mansoni worms; 10 μM) was “decreased activity on the worms”.
With `O=C(C#Cc1ccc(Cl)cc1)Nc1ccc2oc(-c3ccccn3)nc2c1` [Compound 736, 3-(4-chlorophenyl)-N-(2-(pyridin-2-yl)benzo[d]oxazol-5-yl)propiolamide] the IC50 (H. sapiens p97 (P55072)) was 6700 ± 55 nM, the “Fold Selectivity” value [1] was 1.1 and the IC50 [1] was 5900 ± 1300 nM. The “activity on the enzyme” value [1] was “decreased potency on the enzyme”, the EC50 (adult S. mansoni worms; [2]) was 12000 nM and the “effect on adult worms” value (adult S. mansoni worms; 10 μM) was “decreased activity on the worms”.
In the case of `Nc1nc(=O)n(-c2ccccc2Cl)c2nc(C(F)(F)F)ccc12` [IDE397, reference compound], the EC50 (adult S. mansoni worms) is reported as greater than 50000 nM.
`O=C(C#CC1CC1)Nc1ccc2oc(-c3ccccn3)nc2c1` [Compound 732, 3-cyclopropyl-N-(2-(pyridin-2-yl)benzo[d]oxazol-5-yl)propiolamide] was tested, and the IC50 [1] was greater than 100000 nM, the “activity on the enzyme” value [1] was “abolishing activity on the enzyme” and the EC50 (adult S. mansoni worms; [2]) was 1300 nM. The “effect on adult worms” value (adult S. mansoni worms; 10 μM) was “still active on worms”.
With `O=C(C#Cc1cccc(Cl)c1)Nc1ccc2oc(-c3ccccn3)nc2c1` [Compound 735, 3-(3-chlorophenyl)-N-(2-(pyridin-2-yl)benzo[d]oxazol-5-yl)propiolamide] the IC50 (H. sapiens p97 (P55072)) was 7300 ± 660 nM, the “Fold Selectivity” value [1] was 0.70 and the IC50 [1] was 11000 ± 470 nM. For the same compound, the “activity on the enzyme” value [1] was “abolishing activity on the enzyme”, the EC50 (adult S. mansoni worms; [2]) was 4200 nM and the “effect on adult worms” value (adult S. mansoni worms; 10 μM) was “still active on worms”.
Work on `O=C(NOC[C@H](O)CO)c1ccc(F)c(F)c1Nc1ccc(I)cc1F` [Mirdametinib, reference compound] yielded an EC50 (adult S. mansoni worms; [3]) greater than 50000 nM.
For `Cc1cccnc1-c1nc2cc(NC(=O)C#Cc3ccncc3)ccc2o1` [Compound 804, N-(2-(3-methylpyridin-2-yl)benzo[d]oxazol-5-yl)-3-(pyridin-4-yl)propiolamide], the IC50 (H. sapiens p97 (P55072)) was 140 ± 62 nM, the “Fold Selectivity” value [1] was 0.70 and the IC50 [1] was 190 ± 63 nM. It also gave an EC50 (adult S. mansoni worms; [2]) of 760 nM, a GI50 (HepG2 cells; HepG2, 72 h) of 930 nM and an IC50 (HepG2 cells; HepG2, 72 h) of 1200 nM. The GI50 (HepG2 cells; HepG2, read-out: HepG2 GI50) was 930 nM and the IC50 (HepG2 cells; HepG2, read-out: HepG2 IC50) was 1200 nM.
With `Cc1ccc(-c2nc3cc(NC(=O)C#Cc4ccncc4)ccc3o2)nc1` [Compound 806, N-(2-(5-methylpyridin-2-yl)benzo[d]oxazol-5-yl)-3-(pyridin-4-yl)propiolamide] the IC50 (H. sapiens p97 (P55072)) was 510 ± 160 nM, the “Fold Selectivity” value [1] was 1.1 and the IC50 [1] was 470 ± 170 nM. The EC50 (adult S. mansoni worms; [2]) was 3200 nM, the GI50 (HepG2 cells; HepG2, 72 h) was 1500 nM and the IC50 (HepG2 cells; HepG2, 72 h) was 1800 nM. The GI50 (HepG2 cells; HepG2, read-out: HepG2 GI50) was 1500 nM and the IC50 (HepG2 cells; HepG2, read-out: HepG2 IC50) was 1800 nM.
In the case of `O=C(N[C@@H](C1CC1)C(F)(F)F)c1cc(-c2cnn3cc(-c4ccc(F)cc4)cnc23)cs1` [ULK-101, reference compound], the “time in which inhibitor killed parasites” value (adult S. mansoni worms; initial concentration of 10 μM) is reported as no more than 24 h.
With `CN(C)CCc1nnc2cc(-c3ccccc3)c3cc(Cl)ccc3n12` [PF-9366, reference compound] the EC50 (adult S. mansoni worms) was 43000 nM.
In the case of `Cc1cccc(-c2nc3cc(NC(=O)C#Cc4ccncc4)ccc3o2)n1` [Compound 807, N-(2-(6-methylpyridin-2-yl)benzo[d]oxazol-5-yl)-3-(pyridin-4-yl)propiolamide], the IC50 (H. sapiens p97 (P55072)) is reported as 490 ± 57 nM, the “Fold Selectivity” value [1] is reported as 0.70 and the IC50 [1] is reported as 670 ± 170 nM. For the same compound, the EC50 (adult S. mansoni worms; [2]) was 1800 nM, the GI50 (HepG2 cells; HepG2, 72 h) was 1100 nM and the IC50 (HepG2 cells; HepG2, 72 h) was 1400 nM. It also gave a GI50 (HepG2 cells; HepG2, read-out: HepG2 GI50) of 1100 nM and an IC50 (HepG2 cells; HepG2, read-out: HepG2 IC50) of 1400 nM.
For `COc1ccc(C#CC(=O)Nc2ccc3oc(-c4ccccn4)nc3c2)cc1` [Compound 734, 3-(4-methoxyphenyl)-N-(2-(pyridin-2-yl)benzo[d]oxazol-5-yl)propiolamide], the IC50 (H. sapiens p97 (P55072)) was 83000 ± 6500 nM, the “Fold Selectivity” value [1] was 1.7 and the IC50 [1] was 48000 ± 2600 nM. For the same compound, the “activity on the enzyme” value [1] was “decreased potency on the enzyme”, the EC50 (adult S. mansoni worms; [2]) was 7000 nM and the “effect on adult worms” value (adult S. mansoni worms; 10 μM) was “decreased activity on the worms”.
Work on `CC(=O)Nc1cccc(-n2c(=O)n(C3CC3)c(=O)c3c(Nc4ccc(I)cc4F)n(C)c(=O)c(C)c32)c1` [Trametinib, reference compound] yielded an EC50 (adult S. mansoni worms; [3]) of 650 nM.
For `O=C(C#Cc1cccnc1)Nc1ccc2oc(-c3ccccn3)nc2c1` [Compound 738, N-(2-(pyridin-2-yl)benzo[d]oxazol-5-yl)-3-(pyridin-3-yl)propiolamide], the IC50 (H. sapiens p97 (P55072)) was 780 ± 140 nM, the “Fold Selectivity” value [1] was 1.9 and the IC50 [1] was 420 ± 57 nM. For the same compound, the “time to detachment of adult worms in culture” value (adult S. mansoni worms; 10 μM) was no more than 24 h, the EC50 (adult S. mansoni worms; [2]) was 3500 nM and the “effect on adult worms” value (adult S. mansoni worms; 10 μM) was “death of the parasites”.
`Cc1ccnc(-c2nc3cc(NC(=O)C#Cc4ccncc4)ccc3o2)c1` [Compound 805, N-(2-(4-methylpyridin-2-yl)benzo[d]oxazol-5-yl)-3-(pyridin-4-yl)propiolamide] was tested, and the IC50 (H. sapiens p97 (P55072)) was 140 ± 78 nM, the “Fold Selectivity” value [1] was 0.80 and the IC50 [1] was 170 ± 92 nM. The EC50 (adult S. mansoni worms; [2]) was 2000 nM, the GI50 (HepG2 cells; HepG2, 72 h) was 1200 nM and the IC50 (HepG2 cells; HepG2, 72 h) was 1600 nM. The GI50 (HepG2 cells; HepG2, read-out: HepG2 GI50) was 1200 nM and the IC50 (HepG2 cells; HepG2, read-out: HepG2 IC50) was 1600 nM.

Source: doi:10.1101/2025.03.14.643303, “A genome-scale drug discovery pipeline uncovers new therapeutic targets and a unique p97 allosteric binding site in Schistosoma mansoni” (bioRxiv, 2025)
